{
  "source": "patent US20090306171A1",
  "about": "“INDOLE COMPOUNDS HAVING C4-AMIDE SUBSTITUENTS AND USE THEREOF AS PHOSPHOLIPASE-A2 INHIBITORS” (priority 2005, published 2009)",
  "key": {"[1]": {"assay": "Example 5A body weight gain, mice on high fat/high sucrose diabetogenic diet", "assay_type": "in vivo", "details": "for body weight gain compared to the wild-type control group: week 4 and week 10", "method": "(§1) ILY-4001 (FIG. 2) was evaluated as a PLA2 IB inhibitor in a set of experiments using wild-type mice and genetically deficient PLA2 (−/−) mice (also referred to herein as PLA2 knock-out (KO) mice). In these experiments, wild-type and PLA2 (−/−) mice were maintained on a high fat/high sucrose diet, details of which are described below.\n(§2) Briefly, four groups were set up, each having six mice. Three of the groups included six wild-type PLA2 (+/+) mice in each group (eighteen mice total), and one of the groups included six genetically deficient PLA2 (−/−) mice. One of the wild-type groups was used as a wild-type control group, and was not treated with ILY-4001. The other two wild-type groups were treated with ILY-4001-one group at a lower dose (indicated as “L” in Table 1) of 25 mg/kg/day, and the other at a higher dose (indicated as “H” in Table 1) of 90 mg/kg/day. The group comprising the PLA2 (−/−) mice was used as a positive control group.\n(§3) The experimental protocol used in this study was as follows. The four groups of mice, including wild type and isogenic PLA2 (−/−) C57BL/J mice were acclimated for three days on a low fat/low carbohydrate diet After the three day acclimation phase, the animals were fasted overnight and serum samples taken to establish baseline plasma cholesterol, triglyceride, and glucose levels, along with baseline body weight. The mice in each of the treatment groups were then fed a high fat/high sucrose diabetogenic diet (Research Diets D12331). 1000 g of the high fat/high sucrose D12331 diet was composed of casein (228 g), DL-methionine (2 g), maltodextrin 10 (170 g), sucrose (175 g), soybean oil (25 g), hydrogenated coconut oil (333.5 g), mineral mix S10001 (40 g), sodium bicarbonate (10.5 g), potassium citrate (4 g), vitamin mix V10001 (10 g), and choline bitartrate (2 g). This diet was supplemented with ILY-4001 treatments such that the average daily dose of the compound ingested by a 25 g mouse was: 0 mg/kg/day (wild-type control group and PLA2 (−/−) control group); 25 mg/kg/day (low-dose wild-type treatment group), or 90 mg/kg/day (high-dose wild-type treatment group). The animals were maintained on the high fat/high sucrose diet, with the designated ILY-4001 supplementation, for a period of ten weeks.\n(§4) Body weight measurements were taken for all animals in all treatment and control groups at the beginning of the treatment period and at 4 weeks and 10 weeks after initiation of the study. (See Example 5A). Blood draws were also taken at the beginning of the treatment period (baseline) and at 4 weeks and 10 weeks after initiation of the study, in order to determine fasting glucose (See Example 5B). Cholesterol and triglyceride levels were determined from blood draws taken at the beginning of the treatment (baseline) and at ten weeks. (See Example 5C).\nIn the study generally described above in Example 5, body weight measurements were taken for all animals in all treatment and control groups at the beginning of the treatment period and at 4 weeks and 10 weeks after initiation of the study."}, "[2]": {"assay": "Example 5C serum cholesterol and triglycerides, mice on high fat/high sucrose diabetogenic diet", "assay_type": "in vivo", "details": "10 weeks", "method": "as §1, §2, §3\nas §4, with “(See Example 5C).” left out"}, "mouse PLA2 IB enzyme": {"target": "mouse PLA2 IB enzyme (Mus musculus, UniProt Q9Z0Y2)", "sequence (Q9Z0Y2 23-146)": "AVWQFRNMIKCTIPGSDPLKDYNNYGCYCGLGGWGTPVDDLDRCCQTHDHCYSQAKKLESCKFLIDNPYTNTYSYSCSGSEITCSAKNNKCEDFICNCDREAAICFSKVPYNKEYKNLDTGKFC", "details": "pyrene substrate release from vesicles; Singer, Ghomashchi et al. 2002; read-out: IC50 value versus the mouse PLA2 IB enzyme; cited from earlier work"}, "Caco-2 monolayers": {"test_system": "Caco-2 monolayers", "assay": "Example 6B Caco-2 permeability study", "assay_type": "in vitro ADME, human", "details": "for apparent permeability: apical to basolateral, Caco-2 monolayers", "method": "The culture medium was refreshed every 48 hours.\nPapp=(dQ/dt)×(1/C0)×(1/A)"}, "[3]": {"assay": "Example 5B fasting serum glucose, mice on high fat/high sucrose diabetogenic diet", "assay_type": "in vivo", "details": "low dose (25 mg/kg/day)", "method": "as §1, §2\nThe experimental protocol used in this study was as follows. […]\nBody weight measurements were taken for all animals in all treatment and control groups at the beginning of the treatment period and at 4 weeks and 10 weeks after initiation of the study. […] Cholesterol and triglyceride levels were determined from blood draws taken at the beginning of the treatment (baseline) and at ten weeks. […]"}, "Stability at low pH": {"assay": "Stability at low pH", "assay_type": "physicochemical"}, "human PLA2 IB enzyme": {"target": "human PLA2 IB enzyme (Homo sapiens, UniProt P04054)", "sequence (P04054 23-148)": "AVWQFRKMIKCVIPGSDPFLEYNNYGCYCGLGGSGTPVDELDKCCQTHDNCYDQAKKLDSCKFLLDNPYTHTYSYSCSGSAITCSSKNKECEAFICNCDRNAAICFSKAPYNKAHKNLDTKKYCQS", "details": "pyrene substrate release from vesicles; Singer, Ghomashchi et al. 2002; read-out: IC50 value versus the human PLA2 IB enzyme; cited from earlier work"}, "[4]": {"assay": "Example 6C pharmokinetic study (IV and oral)", "assay_type": "in vivo, mice", "details": "30 mg/kg oral", "source_text": "This example characterized ILY-4001 [2-(3-(2-amino-2-oxoacetyl)-1-(biphenyl-2-ylmethyl)-2-methyl-1H-indol-4-yloxy)acetic acid], alternatively referred to herein as methyl indoxam, with respect to activity, as determined by IC50 assay (Example 6A), with respect to cell absorption, as determined by in-vitro Caco-2 assay (Example 6B) and with respect to bioavailability, as determined using in-vivo mice studies (Example 6C).\nThis example evaluated the bioavailability of ILY-4001 [2-(3-(2-amino-2-oxoacetyl)-1-(biphenyl-2-ylmethyl)-2-methyl-1H-indol-4-yloxy)acetic acid], alternatively referred to herein as methyl indoxam. […]\nBioavailability was calculated as a ratio of AUC-oral/AUC-intravenous (IV). To determine this ratio, a first set of subject animals were given a measured intravenous (IV) dose of ILY-4001, followed by a determination of ILY-4001 levels in the blood at various time points after administration (e.g., 5 minutes through 24 hours). Another second set of animals was similarly dosed using oral administration, with blood levels of ILY-4001 determined at various time points after administration (e.g., 30 minutes through 24 hours). The level of ILY-4001 in systemic circulation were determined by generally accepted methods (for example as described in Evans, G., A Handbook of Bioanalysis and Drug Metabolism. Boca Raton, CRC Press (2004)). […]"}},
  "data": [
    {"compound": "Cc1c(C(=O)C(N)=O)c2c(OCC(=O)O)cccc2n1Cc1ccccc1-c1ccccc1", "note": "[ILY-4001, 2-(3-(2-amino-2-oxoacetyl)-1-(biphenyl-2-ylmethyl)-2-methyl-1H-indol-4-yloxy)acetic acid]", "values": [
      {"measurement": "body weight gain compared to the wild-type control group", "setting": "[1]; 25 mg/kg/d in diet", "result": "significantly reduced body weight gains"},
      {"measurement": "body weight gain, extent of modulation relative to PLA2 (−/−) mice", "setting": "[1]; 25 mg/kg/d, four weeks", "result": "approaching that achieved in the PLA2 (−/−) mice"},
      {"measurement": "body weight gain compared to the wild-type control group", "setting": "[1]; 90 mg/kg/d in diet", "result": "significantly reduced body weight gains"},
      {"measurement": "body weight gain, extent of modulation relative to PLA2 (−/−) mice", "setting": "[1]; 90 mg/kg/d, four weeks", "result": "approaching that achieved in the PLA2 (−/−) mice"},
      {"measurement": "body weight gain, extent of modulation relative to PLA2 (−/−) mice", "setting": "[1]; low-dose (25 mg/kg/d), ten weeks", "result": "comparable to that achieved in the PLA2 (−/−) mice"},
      {"measurement": "plasma levels of cholesterol", "setting": "[2]; high dose (90 mg/kg/day)", "result": "substantially reduced"},
      {"measurement": "plasma levels of triglycerides", "setting": "[2]; high dose (90 mg/kg/day)", "result": "substantially reduced"},
      {"measurement": "plasma levels of cholesterol", "setting": "[2]; low dose (25 mg/kg/day)", "result": "substantially reduced"},
      {"measurement": "plasma levels of triglycerides", "setting": "[2]; low dose (25 mg/kg/day)", "result": "substantially reduced"},
      {"measurement": "IC50", "setting": "mouse PLA2 IB enzyme", "result": "~150", "unit": "nM"},
      {"measurement": "apparent permeability", "setting": "Caco-2 monolayers", "result": "around 1.66×10^−7 cm/s"},
      {"measurement": "absorption from the GI lumen", "setting": "Caco-2 monolayers; based on Caco-2 assays and pharmokinetic studies", "result": "relatively low absorption"},
      {"measurement": "fasting glucose levels", "setting": "[3]; week four", "result": "moderately beneficial effect"},
      {"measurement": "fasting glucose levels", "setting": "[3]; week ten", "result": "a beneficial effect was not observed"},
      {"measurement": "stability at low pH", "setting": "Stability at low pH", "result": "stable at low pH"},
      {"measurement": "IC50", "setting": "human PLA2 IB enzyme", "result": "~200", "unit": "nM"},
      {"measurement": "level of non-absorption from the GI tract into systemic circulation", "setting": "[4]", "result": "~72", "unit": "%"}
    ]},
    {"compound": "Lucifer Yellow", "values": [
      {"measurement": "apparent permeability", "setting": "Caco-2 monolayers", "result": "around 2.82×10^−7+/−0.37×10^−7 cm/s"}
    ]}
  ]
}
